Where a chain is given by its changes, count along the chain named. “Also recorded” adds a separate entry of the source. Where two headings read alike, the source gives them in different places.
Tests used:
ZAP70 kinase = biological target: T1, ZAP70 kinase (Homo sapiens, UniProt P43403); conditions: for inhibition of ZAP70 activity (FRET ratio change compared to solvent control): 10 μM, 40 minutes of incubation
T1 sequence (P43403 327-619): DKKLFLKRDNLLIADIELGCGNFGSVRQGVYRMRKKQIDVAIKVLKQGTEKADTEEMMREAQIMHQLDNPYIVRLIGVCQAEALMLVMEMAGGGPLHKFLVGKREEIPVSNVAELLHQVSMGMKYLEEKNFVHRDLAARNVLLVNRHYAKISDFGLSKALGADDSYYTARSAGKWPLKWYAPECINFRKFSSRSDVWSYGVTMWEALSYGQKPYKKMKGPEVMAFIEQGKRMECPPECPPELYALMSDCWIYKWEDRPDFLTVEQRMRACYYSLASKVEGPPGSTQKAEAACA
Procedure: (§1) We first screened a 96-member kinase inhibitor library to identify efficient inhibitors of ZAP70 kinase. […] After 40 minutes of incubation with inhibitors, the cells were imaged, and the FRET ratio changes of individual inhibitors compared to the solvent control were calculated to identify promising candidates after this primary endpoint screening (FIG. 5B-D). We further exploited a control biosensor with a kinase-dead domain (saFRETkd) for counter screening to eliminate false-positive hits due to auto-fluorescence or other non-specific effects^48.
• a, Schematics of the high throughput drug screening platform. First, the cells cultured in 96-well glass bottom plate were treated either with DMSO or inhibitors from the kinase inhibitor library. After 40 minutes of incubation, the cells were imaged, and the FRET ratio change compared to the control cell was calculated. […] Scale bars, 10 μm. • c, Summary of screening results. […] Error bars, mean±SD. • e, Counter screening using a mutant biosensor with a kinase-dead domain to subtract the noise engendered from non-specific fluorescence. […] Error bars, mean±SEM.
(§2) Firstly, we transfected HEK293 cells with optimized saFRET biosensor and established a stable cell line. […] HEK293 stable cell line was then cultured in 96 glass bottom wells for approximately 24 hours and then should be ready for high throughput screening (see FIG. 5A, Example 1). We tested this concept by screening an in house kinase inhibitor library (Cayman chemical inc.) and screened a […] kinase inhibitor library to identify efficient inhibitors of ZAP70 kinase. […] After 40 minutes of incubation with inhibitors, the cells were imaged, and the FRET ratio changes of individual inhibitors compared to the solvent control were calculated to identify promising candidates after this primary endpoint screening (see FIG. 5B-G, Example 1). We further exploited a control biosensor with a mutated-kinase dead domain (saFRETkd) for counter screening to eliminate false-positive hits due to auto-fluorescence or other non-specific effects (Simeonov and Davis 2004).

[1] = system: phosphorylated LAT (Y191); experiment: pLAT (Y191) immunostaining in Jurkat T cells after anti-CD3/CD28 stimulation; type: cell-based, human; conditions: inhibitor pre-treatment 30 minutes, anti-CD3/CD28 5 minutes
Procedure: (§3) We tested the phosphorylation of LAT, a downstream substrate of ZAP70 kinase, and the activation of T cells with the top two identified inhibitors, staurosporine and AZD7762.
(§4) • a, Experimental scheme and timeline for experiments in b-d. The Jurkat T cells were pre-treated with inhibitors for 30 minutes before anti-TCR stimulation by anti-CD3/CD28 antibodies for 5 minutes. • b, Immunostaining images of pLAT (Y191) in Jurkat T cells with different inhibitor pre-treatments. Scale bars, 10 μm. • c, Quantification of pLAT (Y191) intensity of single cells in different groups. (n>150 for each group, One-way ANOVA, ****P<0.0001). Error bars, mean±SD. • d, Quantification of pZAP70 (Y493) intensity of single cells in different groups. (n>200 for each group, One-way ANOVA, ****P<0.0001). […] P116 cells with similar ZAP70-WT or ZAP70-R360P expressions were sorted and isolated for further analysis based on YPet intensity. • h, CD69 expression in P116 cells with or without the expression of ZAP70 (WT) and its mutant (R360P). • i, Quantification of pZAP70 (Y493) intensity of single cells in different P116 groups. […] Scale bars, 10 μm. • k, Quantification of pLAT (Y191) intensity of single cells in P116-ZAP70 R360P cells with different inhibitor pre-treatment. […]

pZAP70 (Y493) [2] = experiment: pZAP70 (Y493) immunostaining in Jurkat T cells after anti-CD3/CD28 stimulation; type: cell-based, human; conditions: inhibitor pre-treatment 30 minutes, anti-CD3/CD28 5 minutes
Procedure: as §3, §4

CD69 expression [3] = experiment: CD69 expression by flow cytometry in T cells after anti-TCR stimulation; type: cell-based, human; conditions: inhibitor pre-treatment
Procedure: as §3, §4

pZAP70 (Y493) [4] = experiment: pZAP70 (Y493) in P116-ZAP70 R360P cells; type: cell-based, human; conditions: inhibitor pre-treatment
From the text: (§5) To examine the efficacy of staurosporine and AZD7762 in inhibiting pathological T cell activation, we used a disease model where T cell activation is mediated by ZAP70-R360P mutation, a main cause of a severe human autoimmune syndrome^4. We introduced wild type ZAP70 or the R360P-mutant of ZAP70 into ZAP70-deficient P116 T cells (FIG. 6G). ZAP70-R360P led to enhanced T cell auto-activation compared to wild type ZAP70 (FIG. 6H).
as §4, with “(n>150 for each group, One-way ANOVA, ****P<0.0001).” left out, “groups.” for “groups. (n>200 for each group, One-way ANOVA, ****P<0.0001).”

pLAT (Y191) = pLAT (Y191) in P116-ZAP70 R360P cells; type: cell-based, human; conditions: inhibitor pre-treatment
From the text: as §5
as §4, with “(n>150 for each group, One-way ANOVA, ****P<0.0001).” left out, “groups.” for “groups. (n>200 for each group, One-way ANOVA, ****P<0.0001).”

CD69 expression [5] = experiment: CD69 expression by flow cytometry in P116-ZAP70-R360P cells; type: cell-based, human; conditions: inhibitor pre-treatment
From the text: as §5
as §4, with “(n>150 for each group, One-way ANOVA, ****P<0.0001).” left out, “groups.” for “groups. (n>200 for each group, One-way ANOVA, ****P<0.0001).”

[6] = biological target: T2, ZAP70 biosensor with kinase-dead domain (saFRETkd) (Homo sapiens, UniProt P43403, K369A); experiment: ZAP70 saFRET biosensor with kinase-dead domain (saFRETkd), control / counter screening; type: cell-based; conditions: for TAK-659-induced FRET response of ZAP70 saFRET biosensor with kinase-dead domain: kinase-dead (K369A) domain, HEK cells
T2 construct: kinase 327-619 (both KA and KM) was chosen for generating the Zap70 biosensor substrate libraries; expressed in transfected cells; host or cells: HEK cells
T2 sequence (P43403 327-619 K369A): T1 sequence (P43403 327-619) with K43A
Procedure: as §1, §2

[7] = biological target: T3, ZAP70 kinase domain (327-619) (Homo sapiens, UniProt P43403); experiment: ZAP70 saFRET biosensor live-cell FRET imaging in HEK cells; type: cell-based; conditions: TAK-659 25 μM
T3 construct: The combination of ZAP70 kinase domain (327-619) and a substrate from LATY191; expressed in transfected cells; host or cells: HEK cells
T3 sequence (P43403 327-619): T1 sequence (P43403 327-619)
From the text: To extend FRET-seq as a general platform to optimize different kinase FRET biosensors in mammalian cells, we further applied this technology to improve the ZAP70 kinase FRET biosensor. […] Similar to the Fyn saFRET biosensor, the FRET change of ZAP70 saFRET biosensor was dominated by the active kinase domain, as evidenced by the observations that the TAK-659-induced dynamic changes (FIG. 3 b,c) and phosphorylation (Supplementary FIG. 5a, or FIG. 11A) were abolished when the kinase domain was replaced by its kinase-dead version (K369A)^41.
Using the established platform for library screening and sequencing, the ZAP70 biosensor candidates selected via the four-dimensional plot were further ranked by the product of Ev (KAH) and Ev (KDL) (FIG. 3D-E). […] The dynamic range of FRET ratio of the biosensors containing […] (SEQ ID NO:113) or […] (SEQ ID NO:114) increased approximately 50% comparing to the parental one, when transiently expressed in HEK cells (FIG. 3G-H). As such, our FRET-seq platform can serve as a general high-throughput approach to engineer FRET biosensor from libraries and develop sensitive kinase biosensors. […]
To increase the specificity of the selected substrates, library with mutated kinase were included. […] The variants which satisfied all conditions were selected (FIG. 3D, Example 1), and their FRET ratio change upon TAK-659 treatment were measured by fluorescence microscope. […]

Structure (SMILES) | inhibition of ZAP70 activity (FRET ratio change compared to solvent control) (ZAP70 kinase) | phosphorylated LAT (Y191) [1] | phosphorylated ZAP70 (Y493) (pZAP70 (Y493) [2]) | expression of CD69 (CD69 expression [3]) | phosphorylation of ZAP70 (pZAP70 (Y493) [4]) | phosphorylation of LAT (Y191) (pLAT (Y191)) | activation of T cells marked by CD69 (CD69 expression [5]) | FRET ratio response of ZAP70 saFRET biosensor (active kinase domain) to inhibitor [7] | further results
NC(=O)Nc1cc(-c2cccc(F)c2)sc1C(=O)N[C@H]1CCCNC1 [AZD7762] | effectively inhibit | Significant reductions | Significant reductions | suppressed | significantly inhibited | significantly inhibited | significantly inhibited |  | 
Cc1[nH]c(/C=C2\C(=O)Nc3ccc(S(=O)(=O)Cc4c(Cl)cccc4Cl)cc32)c(C)c1C(=O)N1CCC[C@@H]1CN1CCCC1 [PHA665752] |  |  |  |  |  |  |  |  | FRET ratio change with saFRETkd in counter screening ([6]; 10 μM library inhibitors, kinase-dead biosensor): nonspecific reduction of FRET ratio
CC(C)(C)n1nc(-c2ccc(Cl)cc2)c2c(N)ncnc21 [PP2] |  |  |  |  |  |  |  | not | 
CN[C@@H]1C[C@H]2O[C@@](C)([C@@H]1OC)n1c3ccccc3c3c4c(c5c6ccccc6n2c5c31)C(=O)NC4 [Staurosporine] | effectively inhibit | Significant reductions | Significant reductions | suppressed | significantly inhibited | significantly inhibited | significantly inhibited |  | 
Cn1cc(-c2nc(N[C@@H]3CCCC[C@@H]3N)c(F)c3c2C(=O)NC3)cn1 [TAK-659] |  |  |  |  |  |  |  | specifically responded; also recorded: significant FRET ratio change | inhibition of ZAP70 activity (FRET ratio change compared to solvent control) (ZAP70 kinase; listed as TAK659): could not reduce the FRET ratio significantly; average FRET ratio reduction (ZAP70 kinase; 25 μM, stable HEK cell line, ZAP70 saFRET biosensor): approximately 25%; TAK-659-induced FRET response of ZAP70 saFRET biosensor with kinase-dead domain [6]: abolished; also recorded: did not show any response; TAK-659-induced FRET response of ZAP70 saFRET biosensor with kinase-dead domain ([6]; listed as TAK659): no response
COc1ccc2cc(-c3nc(-c4ccc([S+](C)[O-])cc4)[nH]c3-c3ccncc3)ccc2c1 (stereo not shown) [Tie2 kinase inhibitor] | effectively inhibit |  |  |  |  |  |  |  | 

Source: US20250347696A1, “SELF-ACTIVATING FÖRSTER RESONANCE ENERGY TRANSFER (saFRET) BIOSENSORS AND METHODS FOR MAKING AND USING THEM” (The Regents of the University of California, priority 2021, published 2025)
